Experimental data published in patent US20240091365A1, “BETA-GLUCURONIDE LINKER-PAYLOADS, PROTEIN CONJUGATES THEREOF, AND METHODS THEREOF” (priority 2022, published 2024).
Read-outs that look alike come from different tables or passages of the source.

Assays:
E. coli β-Glucuronidase = E. coli β-Glucuronidase (Escherichia coli, UniProt P05804); assay: β-Glucuronidase reactivity: enzymatic cleavage of linker-payloads monitored by LCMS; type: in vitro ADME; details: 10 μM linker-payload, 300 U/mL enzyme, 50 mM sodium acetate, 37° C., release of (207) from (107), (201) from (108)
E. coli β-Glucuronidase, sequence (P05804 whole entry): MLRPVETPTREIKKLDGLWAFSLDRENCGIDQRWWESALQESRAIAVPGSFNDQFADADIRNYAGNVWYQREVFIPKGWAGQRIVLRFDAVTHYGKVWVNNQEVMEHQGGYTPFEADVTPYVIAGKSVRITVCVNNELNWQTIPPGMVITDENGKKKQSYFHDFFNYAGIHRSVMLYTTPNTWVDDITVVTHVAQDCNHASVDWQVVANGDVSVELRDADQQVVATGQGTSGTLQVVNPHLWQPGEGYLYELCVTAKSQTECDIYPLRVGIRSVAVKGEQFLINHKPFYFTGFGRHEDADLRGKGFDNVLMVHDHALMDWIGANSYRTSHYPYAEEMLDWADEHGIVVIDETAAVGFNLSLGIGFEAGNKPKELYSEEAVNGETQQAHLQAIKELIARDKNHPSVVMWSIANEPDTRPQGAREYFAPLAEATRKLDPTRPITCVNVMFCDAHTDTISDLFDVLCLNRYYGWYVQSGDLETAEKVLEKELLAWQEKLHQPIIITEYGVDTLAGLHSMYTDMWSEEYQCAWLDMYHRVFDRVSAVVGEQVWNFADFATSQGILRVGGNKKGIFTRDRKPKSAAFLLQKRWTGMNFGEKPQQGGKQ
Protocol: The susceptibility of the β-glucuronide linker-payloads to enzymatic cleavage was evaluated by treatment of the (107) and (108) linker-payloads with β-glucuronidase, as shown in FIG. 3A-FIG. 3D. This assay allowed the confirmation of the expected release of Exatecan (207) and 3-amino hemiasterlin (201). The cleavage product was monitored using LCMS. 945 μL of 50 mM sodium acetate, 5 μL of 2 mM (107)/(108) linker-payloads stock (final conc.10 μM) and 50 μL of 6 KU/mL E. coli β-Glucuronidase in 0.2% NaCl (final conc.300 U/mL) were mixed and incubated at 37° C. Aliquots (50 μL) were taken at t=0 h, 0.5 h, 1 h, 2 h, 4 h and 24 h, treated with 3 volumes of quench solution (methanol:acetonitrile 5:95 v/v) and analyzed by LCMS.

Igrov1 cells = assay: In vitro cell killing (cell proliferation assay, Cell Titer-Glo) on FolRα positive Igrov1 cells; type: cell-based; details: for cell killing (in words): Igrov1 cells (FolRα positive)
From the text: (§1) Anti-FolRα antibody conjugated to hemiasterlin with a cathepsin cleavable ValCit linker was used as control. FolRα negative A549 and MC38 cells were purchased from ATCC (American Type Culture Collection, Manassas, VA, USA), and FolRα positive Igrov1 cells were licensed from NCI (National Cancer Institute at Frederick, Maryland). MC38-hFolRα cells were generated at Sutro by stable transfection of a vector expressing human FolRa. All the cell lines were maintained in DMEM:F12 (1:1), high glucose (Corning, Corning, NY) supplemented with 10% heat-inactivated fetal bovine serum (Thermo Scientific, Grand Island, NY), 2 mM glutamax (Thermo Scientific, Grand Island, NY), and 1× Penicillin/Streptomycin (Corning, Corning, NY). Cytotoxicity effects of the ADCs were measured with a cell proliferation assay. A total of 625 cells for Igrov1 and A549, and 312 cells for MC38-hFolRα in a volume of 25 microliters were seeded in a 384-well flat bottom white polystyrene plate the day before the actual assay starts. ADCs were formulated at 2× starting concentration in cell culture medium and filtered through MultiScreen HTS 96-Well Filter Plates (Millipore, Billerica, Massachusetts). Filter sterilized samples were serial diluted (1:3) under sterile conditions and added onto cells in triplicate. Plates were cultured at 37° C. in a CO2 incubator for 120 hours for Igrov1 and A549, and 72 hours for MC38-hFolRα cells. For cell viability measurement, 30 microliters of Cell Titer-Glo® reagent (Promega Corp, Madison, WI) was added into each well, and plates were processed as per product instructions. Relative luminescence was measured on an ENVISION® plate reader (Perkin-Elmer; Waltham, MA). Relative luminescence readings were converted to % viability using untreated cells as controls. Data was fitted with non-linear regression analysis using log (inhibitor) vs. response, variable slope, and 4-parameter fit equation using GraphPad Prism.

MC38-hFolRα cells = assay: In vitro cell killing (cell proliferation assay, Cell Titer-Glo) on MC38-hFolRα cells; type: cell-based; details: for cell killing (in words): MC38-hFolRα cells (FolRα positive)
From the text: as §1

A549 cells = assay: In vitro cell killing (cell proliferation assay, Cell Titer-Glo) on FolRα negative A549 cells; type: cell-based; details: for cell killing (in words): A549 cells (hFolRα negative)
From the text: as §1

Q: For CN[C@H](C(=O)N[C@H](C(=O)N(C)[C@H](/C=C(\C)C(=O)O)C(C)C)C(C)(C)C)C(C)(C)c1cccc(NC(=O)OCc2ccc(O[C@@H]3O[C@H](C(=O)O)[C@@H](O)[C@H](O)[C@H]3O)c(CNC(=O)CCNC(=O)[C@H](CNC(=O)CCOCCOCCOCCOCCOCCOCCOCCOCCOCCOCCOCCOC)NC(=O)CCCCC(=O)N3Cc4ccccc4C#Cc4ccccc43)c2)c1 [Compound 108], which “linker-payload after 30 min with β-glucuronidase (in words)” value (E. coli β-Glucuronidase) is on record?
A: most of the (107) and (108) in the reaction mixture had disappeared

Q: Which “linker-payload after 30 min with β-glucuronidase (in words)” value (E. coli β-Glucuronidase) does the source give for CC[C@@]1(O)C(=O)OCc2c1cc1n(c2=O)Cc2c-1nc1cc(F)c(C)c3c1c2[C@@H](NC(=O)OCc1ccc(O[C@@H]2O[C@H](C(=O)O)[C@@H](O)[C@H](O)[C@H]2O)c(CNC(=O)CCNC(=O)[C@H](CNC(=O)CCOCCOCCOCCOCCOCCOCCOCCOCCOCCOCCOCCOC)NC(=O)CCCCC(=O)N2Cc4ccccc4C#Cc4ccccc42)c1)CC3 [Compound 107, DBCO β-Glucuronide-PEG12-Exatecan] here?
A: most of the (107) and (108) in the reaction mixture had disappeared

Q: With CC[C@@]1(O)C(=O)OCc2c1cc1n(c2=O)Cc2c-1nc1cc(F)c(C)c3c1c2[C@@H](N)CC3 [Compound 207, Exatecan] as the compound, how does the EC50 (Igrov1 cells; Homo sapiens, IGROV-1, 120 h) read?
A: 0.27 nM

Q: And the “cell killing (in words)” value (Igrov1 cells)?
A: good cell killing

Q: And the Span (Igrov1 cells; Igrov1 cells, 120 hours)?
A: 91%

Q: And the “potency relative to free Hemiasterlin (201)” value (Igrov1 cells; free payloads, statement for the three cell lines tested (Igrov1, MC38-hFolRα, A549))?
A: about 3 fold

Q: What about the EC50 (MC38-hFolRα cells; 72 h) of the same compound?
A: 2.3 nM

Q: What about the Span (MC38-hFolRα cells; MC38-FolRa cells, 72 hours) of the same compound?
A: 95%

Q: What about the “cell killing (in words)” value (MC38-hFolRα cells) of the same compound?
A: good cell killing

Q: And the “cell killing (in words)” value (A549 cells)?
A: good cell killing

Q: And the Span (A549 cells; A549 cells, 120 hours)?
A: 99%

Q: What about the EC50 (A549 cells; Homo sapiens, A549, 120 h) of the same compound?
A: 3.4 nM

Q: What does the source list for 3-amino hemiasterlin [Compound 201]?
A: cell killing (in words) (Igrov1 cells): good cell killing; Span (Igrov1 cells; Igrov1 cells, 120 hours): 88%; EC50 (Igrov1 cells; Igrov1 cells, 120 hours, read-out: EC50): 0.96 nM; Span (MC38-hFolRα cells; MC38-FolRa cells, 72 hours): 82%; EC50 (MC38-hFolRα cells; MC38-FolRa cells, 72 hours, read-out: EC50): 5.5 nM; cell killing (in words) (MC38-hFolRα cells): good cell killing; cell killing (in words) (A549 cells): good cell killing; Span (A549 cells; A549 cells, 120 hours): 83%; EC50 (A549 cells; A549 cells, 120 hours, read-out: EC50): 13 nM
